Measurements reported in ChEMBL document CHEMBL6078624, “Structure-based discovery of a 4,5-Dihydropyrazole-cored PET ligand for imaging of receptor-interacting serine/threonine-protein kinase 1 (RIPK1) in the brain” (Eur J Med Chem, 2024).

How the values were obtained:
[1] = Inhibition of TSZ-induced necroptosis in human HT-29 cells by CellTiter-Glo luminescent cell viability assay
HT-29 = assay: Anti-necroptotic activity against TNF induced human HT-29 cells assessed as cell viability incubated for 48 hrs by Cell Titer-Glo luminescent cell viability assay; assay type: functional, cell-based; settings: HT-29, 48 h
L929 = assay: Anti-necroptotic activity against TNF induced mouse L929 cells assessed as cell viability incubated for 24 hrs by Cell Titer-Glo luminescent cell viability assay; assay type: functional, cell-based; settings: L929, 24 h

Compound: O=C(c1ccccn1)N1CCC(C(=O)N2N=CCC2c2cc(F)cc(F)c2)CC1 (stereo not drawn)
- EC50 [1]: 47.7 nM

Compound: Cc1ncc(-c2ccc3nc(N[11C](C)=O)sc3c2)cc1NC(=O)CC1CCCCC1
- IC50 (HT-29): 23 nM
- IC50 (L929): 13 nM
